Publication PMC9184463, “Structural basis of ligand binding modes of human EAAT2” (Nature Communications, 2022)
pKi: −log10 of the molar value.

Biological target: T1, hEAAT2 mutant R478A (Homo sapiens, UniProt P43004, R478A)
T1 construct: Strep Tag II (N); superfolder GFP (sfGFP) (N); expressed in transfected cells; host or cells: HEK293T
Assay: whole-cell patch-clamp, hEAAT2 mutant R478A in HEK293T cells
Type: cell-based
Conditions: 0 mV; for WAY-213613-inhibited current, normalized (MEAN): R478A
Protocol: Human embryonic kidney 293T (HEK293T) cells were cultured in Dulbecco’s Modified Eagle Medium (DMEM, Gibco) media supplemented with 15% (v/v) fetal bovine serum (FBS, PAN-Biotech) at 37 °C with 5% CO2. HEK293T cells were grown in the culture dishes (d = 3.5 cm) (Thermo Fisher Scientific) for 24 h and then 1 μg hEAAT2 wild-type and mutant plasmids for per dishes were used to transiently transfect HEK293T using 0.7 μg Lipofectamine 2000 Reagent (Thermo Fisher Scientific). Cells were analyzed using electrophysiological experiments between 24 and 40 h after transfection at room temperature (21–25 °C).
Electrophysiological experiments were performed as described previously with a minor modification. External buffer contained 140 mM NaCl, 2 mM MgCl2, 2 mM CaCl2, and 10 mM HEPES (pH = 7.4 with NaOH and osmolarity of ∼310 mosmol L^−1) and while internal pipette solution comprised of 130 mM NaSCN, 2 mM MgCl2, 10 mM EGTA, 10 mM HEPES (pH = 7.4 with NaOH and osmolarity of ∼310 mosmol L^−1) and 10 mM glutamate. 50 mM WAY-213613 stock solutions were prepared in dimethyl sulfoxide (DMSO), followed by dilutions to working concentrations with the above-mentioned external buffer. […] Whole cell patch-clamp experiment recordings were made from isolated GFP-positive HEK293T cells (hEAAT2 wild type and mutants). In all, 3–6 MΩ was used to fire a polished pipette (Sutter Instrument). […] Cells were immersed in the above-mentioned external buffer supplemented with a specified concentration of glutamate or WAY-213613. Glutamate-induced anion current, Na^+-dependent anion leak current and glutamate transport current or WAY-213613 inhibited anion leak currents were recorded using an EPC-10 amplifier (HEKA Electronic) at a 20 kHz sample rate with low pass filter at 5 kHz. All experiments were executed at 0 mV. After the cell current was stabilized, glutamate or WAY-213613 was sustained at the indicated concentrations from external dosing for at least 6 s. Subsequently, the cell was washed away with external buffer to start a new round of applications or end the experiment. The plateau currents were used for the following calculations. For analysis, the data was acquired by PatchMaster program (HEKA Electronic) at 5 s after recording. Nonlinear dose–response relationships were fitted into a Michaelis–Menten-like equation shown as below to obtain the apparent Km and Ki values in the presence of glutamate or WAY-213613.1 I/Imax=Km/i/C+Km/i In this equation, I represent the current at different glutamate or inhibitor concentrations, and Imax represents the maximal current at the saturating concentration of glutamate or inhibitor. [C] represents the concentration of glutamate or inhibitor. Km/i represents the apparent constant.

T1 sequence (P43004 whole entry R478A): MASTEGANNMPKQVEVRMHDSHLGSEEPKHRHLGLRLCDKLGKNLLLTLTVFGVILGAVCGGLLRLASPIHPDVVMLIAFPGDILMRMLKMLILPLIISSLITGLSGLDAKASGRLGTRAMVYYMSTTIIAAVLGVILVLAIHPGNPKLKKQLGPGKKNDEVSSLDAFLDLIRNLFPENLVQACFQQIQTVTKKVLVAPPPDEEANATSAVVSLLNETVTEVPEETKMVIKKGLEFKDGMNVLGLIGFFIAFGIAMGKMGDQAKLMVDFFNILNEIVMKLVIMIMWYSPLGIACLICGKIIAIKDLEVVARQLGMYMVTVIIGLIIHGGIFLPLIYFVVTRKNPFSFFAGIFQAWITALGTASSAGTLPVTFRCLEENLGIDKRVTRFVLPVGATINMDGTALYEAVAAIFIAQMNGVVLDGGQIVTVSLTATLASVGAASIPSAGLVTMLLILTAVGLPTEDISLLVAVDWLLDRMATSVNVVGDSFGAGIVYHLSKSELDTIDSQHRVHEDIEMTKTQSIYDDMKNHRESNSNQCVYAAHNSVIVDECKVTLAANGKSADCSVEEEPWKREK

NC(CC(=O)Nc1ccc(Oc2cc(F)c(F)cc2Br)cc1)C(=O)O (stereo not shown) [WAY-213613]
WAY-213613-inhibited current, normalized (MEAN) (0.3 μM WAY-213613, normalized to current at 100 μM): 0.173
WAY-213613-inhibited current, normalized (MEAN) (1 μM WAY-213613, normalized to current at 100 μM): 0.3915
WAY-213613-inhibited current, normalized (MEAN) (3 μM WAY-213613, normalized to current at 100 μM): 0.5586
WAY-213613-inhibited current, normalized (MEAN) (10 μM WAY-213613, normalized to current at 100 μM): 0.7927
WAY-213613-inhibited current, normalized (MEAN) (30 μM WAY-213613, normalized to current at 100 μM): 0.9136
WAY-213613-inhibited current, normalized (MEAN) (100 μM WAY-213613, normalization reference): 1
pKi (R478A mutant, read-out: apparent Ki): 5.77
